Source: publication PMC10455244, “Alpha-Mangostin: A Potent Inhibitor of TRPV3 and Pro-Inflammatory Cytokine Secretion in Keratinocytes” (International Journal of Molecular Sciences, 2023)

Target: T1, TRPV3 (G573S) (Homo sapiens, UniProt Q8NET8, G573S)
T1 construct: host or cells: HEK 293T (transient transfection, pEGFP-N1 co-transfected as a marker)
T1 sequence (Q8NET8 1-790 G573S): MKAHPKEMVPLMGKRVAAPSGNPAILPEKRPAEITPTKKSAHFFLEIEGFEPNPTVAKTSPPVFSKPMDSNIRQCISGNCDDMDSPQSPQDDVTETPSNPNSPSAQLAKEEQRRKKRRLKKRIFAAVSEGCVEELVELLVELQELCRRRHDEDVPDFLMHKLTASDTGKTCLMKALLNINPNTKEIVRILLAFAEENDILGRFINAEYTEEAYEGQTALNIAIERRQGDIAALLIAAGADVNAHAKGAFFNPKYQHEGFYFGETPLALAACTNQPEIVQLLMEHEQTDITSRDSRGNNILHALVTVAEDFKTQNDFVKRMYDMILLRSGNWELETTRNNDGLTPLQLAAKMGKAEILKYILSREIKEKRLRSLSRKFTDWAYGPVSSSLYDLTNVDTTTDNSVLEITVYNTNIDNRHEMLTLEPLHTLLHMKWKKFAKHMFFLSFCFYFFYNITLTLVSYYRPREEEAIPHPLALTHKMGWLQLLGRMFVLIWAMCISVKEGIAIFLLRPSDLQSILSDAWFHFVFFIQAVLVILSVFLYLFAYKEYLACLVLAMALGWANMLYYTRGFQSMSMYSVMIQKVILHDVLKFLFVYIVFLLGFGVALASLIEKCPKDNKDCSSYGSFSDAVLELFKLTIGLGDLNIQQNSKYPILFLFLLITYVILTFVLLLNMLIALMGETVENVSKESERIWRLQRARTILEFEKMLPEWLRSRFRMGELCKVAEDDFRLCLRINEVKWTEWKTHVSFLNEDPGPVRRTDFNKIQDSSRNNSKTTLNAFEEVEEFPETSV
Experiment: Whole-cell patch-clamp, spontaneous current of TRPV3 G573S mutant in HEK 293T cells
Format: cell-based
Conditions: −100 mV, read-out: IC50, inhibition of spontaneous current of TRPV3 G573S mutant
Method: For electrophysiology recording and calcium measurement, 10 µM 74a (a TRPV3 inhibitor) was added about 6 h after transfection to inhibit channel activities and prevent cell death. First, the electrophysiology activities of the mutations were recorded using a whole-cell patch-clamp. Our data presented spontaneous TRPV3 currents when −100 mV to 100 mV ramp pulses were applied, which dramatically declined with the addition of 1 µM alpha-mangostin (Figure 4A).
Figure 4 Alpha-mangostin inhibited the activity of hyperactive TRPV3 mutant channels and rescued mutation-induced cell death. (A) Alpha-mangostin inhibited the channel current in representative TRPV3 (G573S)- and TRPV3 (G573C)-expressing HEK 293T cells. […] Currents were normalized to the response at −100 mV before adding alpha-mangostin. (C) Alpha-mangostin inhibited TRPV3-mediated intracellular calcium increase in TRPV3 (G573S)-expressing HEK 293T cells. […] The bar graph on the right summarizes the change in the intracellular calcium rise inhibited by alpha-mangostin. […]
In the whole-cell configuration, voltage ramps from −100 to +100 mV over 1 s were applied every 20 s and the holding potential was set at 0 mV. Sampling at 10 kHz and low-pass filtering at 5 kHz (w-c) were applied for all recorded currents. Recorded data were analyzed using Clampfit ver. […]

COc1c(O)cc2oc3cc(O)c(CC=C(C)C)c(O)c3c(=O)c2c1CC=C(C)C [Alpha-mangostin]
IC50: 2040 ± 640 nM
